Experimental data published in the supplement of paper PMC11208160.

Assay: recombinant barcode read abundance after kanamycin selection (control-corrected) (log10(CPM+1)); higher = more efficient recombination; sequences stand for … in AGTGCAGAGAAAATCGGCCAGTTTTCTCTGCCTGCAGTCCGCATGCCGT…AGATTTATGCAGCGGACTGCCTTTCTCCCAAAGTGATAAACCGGACAGTATCATGGACCGGTTTTCCCGGTAATCCGTATTTGCAAGGTTGGTTTCACT; site = the 11-nt target
Outline: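 A vector carrying a T7-inducible recombinase and the last 73 bp of the bridge RNA received, by Gibson cloning, oligos encoding a promoter, target, barcode and the first 104 bridge RNA bases under J23119. The pooled constructs entered E. coli together with a donor plasmid by electroporation. Selection used chloramphenicol/ampicillin/kanamycin with 0.1 mM IPTG, with chloramphenicol/ampicillin LB agar as the control, each in two replicates. Recombination efficiency is the averaged, control-corrected counts-per-million of barcodes at recombinant junctions, reported as log10(CPM+1).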
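Further: IS621 recombinase and bridge RNA in Escherichia coli cells.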

| Sequence | recombinant barcode read abundance (log10) |
| --- | --- |
| TAGGCTACTTGGGTTCTAACCTGTTGCCA (site ACCCAATCTGT) | 0.0662 |
| CGCTTTACTTGGGTTCTAACCTGTTGCCG (site CGCTTTACTCG) | 0.104 |
| GGGCATCCTTGGGTTCTAACCTGTTGCAT (site TCATTAGCTCG) | 0.246 |
| TGTCGGCCTTGGGTTCTAACCTGTTGCTT (site CTATTTACTCC) | 0.107 |
| AGGGACTCTTGGGTTCTAACCTGTTGCCG (site TGGGACACTCG) | 0.0423 |
| TCTCGGTCTTGGGTTCTAACCTGTTGCCT (site TCACGGTCTAG) | 0.71 |
| TCCGAGACTTGGGTTCTAACCTGTTGCCG (site TCCGAGACTGG) | 0.0458 |
| TCTTCCACTTGGGTTCTAACCTGTTGCCT (site CCTTCCACTAG) | 0.0781 |
| CCTCAATCTTGGGTTCTAACCTGTTGCTT (site CCTCATTCTAA) | 0.144 |
| GCAGGGACTTGGGTTCTAACCTGTTGCAG (site GCAAGGACTCT) | 0.883 |
| TCTTAGACTTGGGTTCTAACCTGTTGCCT (site TCTTAGACTAG) | 0.0224 |
| TAGCGCACTTGGGTTCTAACCTGTTGCGG (site TAGCCCACTCC) | 0.076 |
| CGTCAACCTTGGGTTCTAACCTGTTGCCT (site CGTCACCCTAG) | 0.117 |
| CTGAGTACTTGGGTTCTAACCTGTTGCCT (site ATCAGTACTAG) | 0.0653 |
| ATCGGCCCTTGGGTTCTAACCTGTTGCTG (site ATCGGCCCTCA) | 2.07 |
| ACTAGTCCTTGGGTTCTAACCTGTTGCAT (site ACTAGTCCTAC) | 0.0726 |
| ACATAGTCTTGGGTTCTAACCTGTTGCTG (site ACATAGTCTCA) | 0.71 |
| AGCAGGTCTTGGGTTCTAACCTGTTGCCT (site AGCAGGTCTAG) | 1.09 |
| CTAGGACCTTGGGTTCTAACCTGTTGCCA (site CTAGGACCTTG) | 1.27 |
| CTGCTCCCTTGGGTTCTAACCTGTTGCGG (site CTGTTCCCTCC) | 0.0581 |
| CGAGGTACTTGGGTTCTAACCTGTTGCAT (site CGAGATCCTAT) | 0.0262 |
| TTACGCACTTGGGTTCTAACCTGTTGCCT (site TAACCCACTAG) | 0.264 |

| Sequence | recombinant barcode read abundance (log10) |
| --- | --- |
| ATCGCTCCTTGGGTTCTAACCTGTTGCCT (site ACCGCTCCTAG) | 0.115 |
| TAGCGTACTTGGGTTCTAACCTGTTGCGT (site TAGCGTACTCC) | 0.0572 |
| GCCGCTCCTTGGGTTCTAACCTGTTGCCT (site GCGGTTCCTAG) | 0.098 |
| ATGGTCACTTGGGTTCTAACCTGTTGCCT (site AGGGTCACTAG) | 0.0805 |
| CTCCGAGCTTGGGTTCTAACCTGTTGCTA (site CTCCTAGCTAA) | 0.00807 |
| AGGTGCTCTTGGGTTCTAACCTGTTGCCT (site AGGTGCTCTAG) | 1.6 |
| GTCGTCTCTTGGGTTCTAACCTGTTGCCT (site GTCGTCTCTAG) | 1.65 |
| AGTCCTACTTGGGTTCTAACCTGTTGCAG (site AGTCCTACTCT) | 0.794 |
| TTCGACTCTTGGGTTCTAACCTGTTGCTA (site TTCGACTCTTA) | 1.07 |
| GAGCCTCCTTGGGTTCTAACCTGTTGCAT (site GAGCCTCCTAT) | 1.81 |
| CTCGCTCCTTGGGTTCTAACCTGTTGCCA (site GAAAAGTCTCA) | 0.113 |
| AGAGGTCCTTGGGTTCTAACCTGTTGCCT (site AGAGGTCCTAG) | 2.04 |
| CCGCAGCCTTGGGTTCTAACCTGTTGCCT (site CCGGAGCCTAG) | 0.177 |
| TGGACTTCTTGGGTTCTAACCTGTTGCTG (site TGGACTTCTGA) | 0.215 |
| TTGGGTGCTTGGGTTCTAACCTGTTGCCG (site TTGGGTGCTCG) | 1.81 |
| ATAAAACCTTGGGTTCTAACCTGTTGCCT (site TTAAAACCTAG) | 0.244 |
| AAGTCCTCTTGGGTTCTAACCTGTTGCTT (site AAGTCCTCTAA) | 1.48 |
| ACGATTCCTTGGGTTCTAACCTGTTGCTT (site ACGAGTCCTAA) | 0.0586 |
| GAGTCTTCTTGGGTTCTAACCTGTTGCTA (site GAGTACTCTTA) | 0.0434 |
| CTCGTTGCTTGGGTTCTAACCTGTTGCCT (site ATCGTTGCTAG) | 0.0725 |
| CTCAGACCTTGGGTTCTAACCTGTTGCTG (site TCACACACTAG) | 0.463 |
